Assay results: publication PMC11067750, “Biophysical and structural study of La Crosse virus endonuclease inhibition for the development of new antiviral options” (IUCrJ, 2024)
Where “and” joins values, the source holds several entries; their conditions need not be identical. Equal values may be shown once. Read-outs that look alike come from different tables or passages of the source.

Tests used:
LACV EndoN [1] = biological target: T1, LACV EndoN (Bunyavirus La Crosse, UniProt A5HC98); assay: Microscale thermophoresis (MST) binding affinity; design: species or system La Crosse virus; details: for Kd: Affinity K d, labelled protein 50 or 100 nM, 0.5 mM MnCl2, 5% DMSO, n = 3; for fold better affinity than DPBA: ratio of K d values versus DPBA
Target sequence in this assay (A5HC98 1-185): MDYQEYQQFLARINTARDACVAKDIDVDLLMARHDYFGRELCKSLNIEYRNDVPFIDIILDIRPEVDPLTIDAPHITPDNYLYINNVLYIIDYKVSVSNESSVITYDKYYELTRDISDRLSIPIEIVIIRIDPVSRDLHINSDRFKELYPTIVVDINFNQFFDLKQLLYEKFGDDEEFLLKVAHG

FLUV PA-Nter = biological target: FLUV PA-Nter; design: method as in DuBois et al., 2012; details: ref DuBois et al., 2012; cited from earlier work
LACV EndoN [2] = biological target: T1, LACV EndoN; assay: In vitro endonuclease FRET assay; type: biochemical, La Crosse virus; details: for fold greater inhibition efficiency than DPBA: ratio of IC50 values versus DPBA
Method: An in vitro endonuclease assay was used to investigate the inhibition of LACV EndoN by DPBA, L-742,001 and baloxavir. The reaction was conducted using a 20 µl sample in 20 mM Tris pH 7.6, 150 mM NaCl, 0.01% Tween 20, 1 mM DTT and was supplemented with 1 mM freshly prepared MnCl2. The 19-mer RNA at a concentration of 50 nM and a gradient concentration of inhibitor (from 0.004 to 100 µM) were pre-incubated at 25°C in the reaction buffer. The reaction was started upon the addition of LACV EndoN (pre-mixed with 1 mM MnCl2 and pre-incubated at 25°C for 5 min) at a final concentration of 0.25 µM. Fluorescence upon RNA cleavage was followed in a PHERAstar FSX microplate reader (BMG Labtech, Germany) at 25°C using wavelengths of 465 nm for excitation and 520 nm for emission.
The inhibition efficacies of the three ligands were tested against LACV EndoN in an endonuclease FRET assay and the results are summarized in Table 2 ▸. This was performed following the cleavage of a 19-mer RNA labelled with a 5′ fluorescent probe (6-FAM) and a 3′ quencher (BHQ1) in the presence of a range of ligand concentrations upon the addition of 0.25 µM LACV EndoN. In this FRET inhibition assay, the order in which the three partners of the catalytic complex (protein, ions and substrate RNA) are introduced is decisive. The reaction is triggered by adding the protein pre-incubated with ions to a mixture containing substrate RNA, ions and ligand. The design of the assay may constitute a limitation to the complete assessment of the binding efficiency of baloxavir to the enzyme, given the competition between substrate RNA, free ions and ligand. As described for FLUV, baloxavir is a tight-binding inhibitor with slow dissociation and acts by preventing binding of the RNA substrate (Omoto et al., 2018[▸]; Todd et al., 2021[▸]). In the context of the current biochemical assay, the interplay between the RNA substrate and the ligand presents an unfavourable scenario for binding of the metal-chelating ligand. […] This unexpected uniformity of the inhibition values underscores the remarkable potency of these compounds in the face of a challenging biochemical landscape.
Target sequence in this assay (A5HC98 1-185): as above

LCMV EndoN = details: ref Saez-Ayala et al., 2018, 2019; cited from earlier work
LACV EndoN [3] = biological target: T1, LACV EndoN; type: binding, La Crosse virus; details: for Stability ΔT m: 50 µM compound, 5 µM protein, baseline LACV EndoN in the presence of manganese (T m ≃ 56°C); for greater stabilization compared with DPBA: difference in ΔT m versus DPBA, with 0.5 mM MnCl2
Method: The influence of compound binding on the stability of LACV EndoN was measured by a Thermofluor assay using a CFX Connect Bio-Rad real-time PCR machine at a protein concentration of 5 µM in a buffer consisting of 20 mM Tris–HCl pH 7.6, 150 mM NaCl, 2.5 mM β-mercaptoethanol supplemented with 0.5 mM freshly prepared MnCl2. The compound concentration was fixed at 50 µM (5% DMSO). In 96-well thin-walled PCR plates, 1 µl inhibitor was added to 17 µl buffer followed by the addition of 2 µl protein. Finally, 2 µl of the fluorescent dye SYPRO Orange (Thermo Fisher, catalog No. 4461146) was added (a fivefold final concentration). Controls were performed using the same protocol without MnCl2. The melting-temperature (T m) values given are the average and standard deviation of three independent experiments.
DSF is used to assess protein stabilization or destabilization upon the addition of cofactors by measuring the thermal stability (the thermal melting transition T m) arising from interaction with a fluorescent dye (SYPRO Orange) during denaturation.
(c) Structures of the studied ligands.
Target sequence in this assay (A5HC98 1-183): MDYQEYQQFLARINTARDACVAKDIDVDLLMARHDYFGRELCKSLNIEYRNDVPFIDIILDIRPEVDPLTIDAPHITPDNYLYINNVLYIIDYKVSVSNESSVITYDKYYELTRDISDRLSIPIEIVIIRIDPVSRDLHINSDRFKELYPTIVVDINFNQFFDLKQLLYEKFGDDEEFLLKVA

Structure (SMILES)	Kd (LACV EndoN [1])	Kd (FLUV PA-Nter) [nM]	IC50 (LACV EndoN [2]) [nM]	Kd (LCMV EndoN) [nM]	fold better affinity than DPBA (LACV EndoN [1])	Stability ΔT m (LACV EndoN [3]; 0.5 mM MnCl2)	Stability ΔT m (LACV EndoN [3]; 0.5 mM MnCl2, listed as baloxavir) [°C]	greater stabilization compared with DPBA (LACV EndoN [3])	fold greater inhibition efficiency than DPBA (LACV EndoN [2])	T m increase upon addition of metal ions (LACV EndoN [3]; 0.5 mM MnCl2, versus LACV EndoN without ions (T m of 49°C)) [°C]
O=C(O)C(=O)CC(=O)c1ccccc1 [DPBA, 2,4-Dioxo-4-phenylbutanoic acid]	1350 ± 250 nM	4500	990 ± 60	5400	–	–	–	–	–	–
O=C1c2c(O)c(=O)ccn2N([C@@H]2c3ccccc3SCc3c2ccc(F)c3F)[C@@H]2COCCN12 [Baloxavir, (R)-12-((S)-7,8-Difluoro-6,11-dihydrodibenzo[b,e]thiepin-11-yl)-7-hydroxy-3,4,12,12a-tetrahydro-1H-[1,4]oxazino[3,4-c]pyrido[2,1-f][1,2,4]triazine-6,8-dione]	19 ± 6 nM	–	340 ± 20	–	68 fold	+12.72 ± 0.18 °C	~13	+6 °C	threefold	–
O=C(O)/C(O)=C/C(=O)C1(Cc2ccc(Cl)cc2)CCN(Cc2ccccc2)CC1 [L-742,001, (Z)-4-{1-benzyl-4-[(4-chlorophenyl)methyl]-piperidin-4-yl}-2-hydroxy-4-oxobut-2-enoic acid]	600 nM and 614 nM	–	650 ± 30	–	twofold	–	–	+4 °C	1.5 fold	–
[Cl][Mn][Cl] [MnCl2]	–	–	–	–	–	–	–	–	–	~7
